According to patent publication US11820973B2, “Methods and system for interfering with viability of bacteria and related compounds and compositions” (CALIFORNIA INSTITUTE OF TECHNOLOGY, priority 2011, dated 2023):
“Also recorded” adds a separate entry of the source.

Tests used:
[1] = test system: P. aeruginosa PA14 mature biofilms; experiment: MBEC assay, dissolution of mature biofilms; format: cell-based, Pseudomonas aeruginosa; conditions: 100 or 200 μM Ferrozine®; 24 h exposure
Description: (§1) In some examples, biofilm prevention and dissolution were measured via a high-throughput biofilm assay (MBEC Physiology and Genetics Assay) consisting of a 96-well plate into which a 96-peg plastic lid fits. This lid also fits over a standard 96-well plate, which was subsequently used to test the efficacy of iron chelators. Inoculum was prepared by diluting (30-fold) a 1.0 McFarland suspension of P. aeruginosa PA14 in TSB. 150 μl, was dispensed into each of the 60 inner wells, while 200 μl, of sterile trypticase soy broth (TSB) was placed in each perimeter well. For dissolution experiments, plates were incubated at 37° C. for 24 h, and were transferred to an anaerobic chamber for 24 h at 37° C. in anaerobic TSB containing 50 mM KNO3. Biofilms were then exposed to conalbumin and/or Ferrozine® for 24 h. Each treatment was complemented with the addition of 80 μM ferrous ammonium sulfate. After treatment, lids were rinsed once in 50 mM HEPES, air dried for 10 min and quantified by crystal violet staining. For biofilm prevention, anaerobic inoculum was amended with conalbumin and/or Ferrozine®. Media was replaced every 24 h by transferring the MBEC lid to a sterile plate containing growth media+/− treatments, and biofilms were allowed to develop for 168 h. Biomass was quantified as described above. Biological triplicates and six technical replicates (n=18) were used for each treatment.

[2] = test system: P. aeruginosa PA14 biofilm; experiment: MBEC assay, anaerobic biofilm prevention; format: cell-based, Pseudomonas aeruginosa
Description: as §1

P. aeruginosa = experiment: Planktonic growth rates with iron chelators; format: cell-based, Pseudomonas aeruginosa
[3] = test system: P. aeruginosa PA14 Δphz mutant; experiment: Intracellular NADH/NAD^+ ratio in stationary phase cultures; format: cell-based, Pseudomonas aeruginosa; conditions: for Effect on intracellular NADH/NAD^+ ratios: stationary phase, 30 mM nitrate, pyocyanin in the micromolar range
Description: (A) Growth and pyocyanin production for wild type P. aeruginosa PA14 grown aerobically in 10 ml LB in 18×150 mM tubes. (B) NADH/NAD^+ ratios for cultures grown under the same conditions as those described in part (A). At 7 hours, pyocyanin production in the wild type cultures was visible by eye. 45 μM (half the expected final concentration) was added to the Δphz cultures to be tested for complementation, and 15 mM KNO3 was added to cultures to be tested for the effect of an additional electron acceptor. At 9 hours, pyocyanin in the wild type cultures had increased to near-maximum concentrations, so a second dose of pyocyanin or KNO3 was added to the appropriate cultures, for final concentrations of 90 μM and 30 mM, respectively. Water was added to negative controls. Eleven hours after inoculation, and 2 hours after the addition of the final dose of pyocyanin, NAD(H) was extracted and assayed for each culture. (C), NADH/NAD^+ ratios for cultures treated as in part (B), but with varying concentrations of pyocyanin added. (D) NADH and NAD^+ concentrations for cultures described in (B), normalized to OD (500 nm). Error bars represent the standard deviations of triplicate samples. OD, optical density. wt, wild type.
Two×1 ml of culture were sampled into two separate microcentrifuge tubes and centrifuged at 16,000×g for 1 min. Supernatant was removed and pellets were resuspended in 300 μl of 0.2 M NaOH (for NADH extraction) or 0.2 M HCl (for NAD^+ extraction). […] Supernatants were transferred to fresh tubes and stored at −80° C. until quantification.
A master reagent mix was prepared with 1× Bicine buffer (2.0 M, pH 8.0), 8× water, 1×80 mM EDTA, 2×100% EtOH, 2×4.2 mM thiazolyl blue (MTT), and 4×16.6 mM phenazine ethosulfate. […] The microtiter plate was incubated at 30° C., mixed by brief shaking, and read every 30-60 seconds for absorbance at 570 nm, which is the spectral peak of MTT that increases upon reduction. Slopes arising from plots of absorbance at 570 nm over time were generated for NADH and NAD^+ standards as well as all samples. […]

[4] = test system: P. aeruginosa PA14 wild-type colonies; experiment: Colony biofilm morphology, wild type; format: cell-based, Pseudomonas aeruginosa; conditions: 0.2 M of either compound added to the agar
Description: FIG. 8. […] Each day colonies from three independent experiments were scanned and their surface coverage was determined. Representative images of colonies at day 2, 4 and 6 are shown (A; scale bar is 1 cm). The data in (B) show the average surface coverage and standard deviation for the three independent experiments. (C) Phenazine titrations. […] Surface coverage of colonies from three independent experiments was determined after incubation at 20° C. for 7 days. Bars indicate the standard deviation.
Colony biofilms were grown on agar containing 1% tryptone as previously described. Three colonies from independent spottings were documented for 8 days using an Epson scanner.

[5] = test system: P. aeruginosa PA14 phenazine null strain (Δphz); experiment: Flow cell biofilm development, phenazine null strain, 1% TSB; conditions: 10 μM PCA in the medium flow of the Δphz mutant; by day 6
[6] = test system: P. aeruginosa PA14 Δphz1/2 colonies; experiment: Colony biofilm morphology and surface coverage, Δphz1/2; format: cell-based, Pseudomonas aeruginosa; conditions: for Effect on rugosity and surface coverage of colonies: 0.2 M of either compound added to the agar
[7] = test system: P. aeruginosa PA14 wild type; experiment: Flow cell biofilm development, wild type, 1% TSB with or without conalbumin; conditions: wild type; for Rescue of the conalbumin-induced biofilm defect: 10 μM phenazine added to conalbumin-treated 1% TSB, 6 days
[8] = test system: P. aeruginosa PA14 wild type; experiment: Swarming motility, wild type; format: cell-based, Pseudomonas aeruginosa; conditions: 100 μM in the swarming agar
Description: (§2) FIG. 6. Δphz1/2 has increased swarming motility. Quantification of swarming motility. Images of three swarming plates for each strain or condition were captured, exported to Adobe Photoshop and the agar surface covered by the swarms was quantified using the Analysis Tools.
(§3) Swimming, swarming and twitching motilities were determined as previously described.

[9] = test system: P. aeruginosa PA14 Δphz1/2; experiment: Swarming motility, Δphz1/2; format: cell-based, Pseudomonas aeruginosa; conditions: 100 μM in the swarming agar
Description: as §2, §3

[10] = test system: P. aeruginosa PA14 Δphz1/2; experiment: Flow cell biofilms in 10% LB, COMSTAT analysis; format: cell-based, Pseudomonas aeruginosa
Description: Flow cell biofilms were grown under constant flow at 22° C. in 1.5×4×34 mm flow cells. Continuous flow of 10% LB was supplied with a peristaltic pump at a constant rate of […]. An early stationary-phase culture was diluted to an optical density at 500 nm of around 0.1 and 300 μl were inoculated into the flow cell. Strains expressing eyfp constitutively were used to visualize the biofilms. Upon inoculation, cells were allowed to attach in the absence of flow for 1.5 h before flow was resumed. Developing biofilms were imaged in 3 dimensions using a Leica confocal microscope. eYFP was excited with a 488 nm laser beam kept at constant intensity throughout the experiment, and emission from 510 to 618 nm was collected. Routinely, the Applicant observed that the distribution of bacterial cells throughout the colonized surface varied depending on the region of the flow cell, probably due to factors such as flow or accumulation of planktonic cells. To assure reproducibility, all images were acquired from an area set in the middle of the flow cell. Three images of duplicate flow cell lines were recorded and at least two independent experiments were performed.
To measure the impact of phenazines on biofilm formation directly, a flow cell system was first used to grow wild-type and Δphz1/2 biofilms. In this system, the wild type formed heterogeneous biofilms that after 4 days developed large and abundant microcolonies (FIG. 7A). Biofilms of Δphz1/2 were flatter and consisted of fewer and smaller aggregates scattered throughout the field of view (FIG. 7B). The morphology of 4-day-old biofilms was analyzed using COMSTAT. A fixed threshold value and connected volume filtration were used for all image stacks. Table 6 summarizes the values calculated for mean biofilm thickness, substratum coverage, number of microcolonies at the substratum, surface-to-volume ratio and maximum biofilm thickness for three independent experiments. […] PCA was not tested under these conditions. The mean thickness, the number of microcolonies and the total biomass volume all increased, reaching numbers similar or even higher than those observed for the wild type (Table 6).

[11] = test system: P. aeruginosa PA14 siderophore null strain (ΔpvdAΔpchE); experiment: Flow cell biofilm development, siderophore null strain, 1% TSB; conditions: 10 μM PYO
[12] = test system: P. aeruginosa PA14 Δphz mutant; experiment: Pyruvate excretion, HPLC of culture filtrates; format: cell-based, Pseudomonas aeruginosa; conditions: 50 μM pyocyanin added to the Δphz mutant upon entry into stationary phase
Description: FIG. 13. Wild type P. aeruginosa PA14 excretes pyruvate in stationary phase, and addition of pyocyanin to Δphz mutant cultures restores the pyruvate excretion phenotype. Cultures were inoculated into MOPS synthetic medium amended with 50 mM glucose (initial OD (500 nm)=0.03). To complement pyruvate excretion, 50 μM pyocyanin was added to the Δphz culture at the time when pyocyanin reached its maximum concentration in the wild type cultures (approximately 12 hours after inoculation). 20 μl of culture filtrates at the 24-hour time point were loaded onto an anion exchange column and subjected to an isocratic gradient in 5 mM H2SO4. Pyruvate peaks (1305, 1310) are indicated by arrows. The elution time of pyruvate drifts slightly but averages around 10.5 minutes. Results shown are representative of three separate experiments. Other peak identities are described in the text.
Two hundred μl were sampled from MOPS-glucose cultures (10 ml in an 18×150 mm test tube) at regular intervals and filtered (0.2 μm pore). In cases where repeated sampling from the same culture would alter the total culture volume by more than 10%, multiple identical cultures were inoculated from the same pre-culture and sampled sequentially. […] Compounds were detected by UV absorbance at 210 nm. Absolute concentrations of pyruvate were calculated using a standard curve for pyruvate diluted in MOPS buffer. […]

[13] = test system: Pseudomonas aeruginosa genes/operons; experiment: DNA microarrays and quantitative RT-PCR; format: cell-based; conditions: P. aeruginosa PA14
Description: Strikingly, mexGHI-opmD and PA2274 were previously shown to be regulated by the PA14 quorum sensing network that controls the production of virulence factors (including phenazines). Through mutational analysis, it is shown that pyocyanin is the physiological signal for the upregulation of these quorum sensing controlled genes during stationary phase and that the response is mediated by the transcription factor SoxR. Our results implicate phenazines as signaling molecules in both P. aeruginosa PA14 and PAO1. Examples are shown in the paper: Dietrich et al. 2006, The phenazine pyocyanin is a terminal signaling factor in the quorum sensing network of Pseudomonas aeruginosa, Molecular Microbiology Vol. 61, No. 5, page 1308-1321, incorporated herein by reference in its entirety.

[14] = 4 day-old biofilms, Δphz1/2, 25 μM pyocyanin

Q: Which results are given for O.O=S(=O)([O-])c1ccc(-c2nc(-c3ccccn3)nnc2-c2ccc(S(=O)(=O)O)cc2)cc1.[Na+] [Ferrozine®, 3-(2-Pyridyl)-5,6-diphenyl-1,2,4-triazine-p,p′-disulfonic acid monosodium salt hydrate]?
A: Dissolution of mature biofilm [1]: ~20%; Reduction of biofilm accumulation ([2]; 100 μM Ferrozine®, ˜10 μM Fe(II) and 10 μM Fe(III) present): 24%; Reduction of biofilm accumulation ([2]; 200 μM Ferrozine®): reduced it slightly further; Effect on planktonic growth rates (P. aeruginosa): Neither compound affected planktonic growth rates

Q: For O=[N+]([O-])[O-].[K+] [Nitrate, KNO3], which “Effect on intracellular NADH/NAD^+ ratios” value [3] is on record?
A: The value was “effected decreases in intracellular NADH/NAD^+ ratios”.

Q: How did the “Effect on the structure of colonies” value [4] turn out when O=C(O)c1cccc2nc3ccccc3nc12 [PCA, Phenazine-1-carboxylic acid] was run?
A: Its value is “did not noticeably affect the structure of wild-type colonies”.

Q: What about the “Increase of biofilm biomass” value [5] of the same compound?
A: The value was “four times”.

Q: What about the “Effect on surface coverage of colonies” value ([6]; 0.1M PCA, titration) of the same compound?
A: Its value is “sufficient to decrease surface coverage of Δphz1/2 colonies to wild-type levels”.

Q: What about the “Effect on rugosity and surface coverage of colonies” value [6] of the same compound?
A: Its value is “significantly decreased rugosity and surface coverage of Δphz1/2 colonies”.

Q: What about the “Effect on surface coverage of colonies” value ([6]; higher concentrations of PCA (up to 0.4M)) of the same compound?
A: Its value is “had no additional effects”.

Q: And the “Rescue of the conalbumin-induced biofilm defect” value [7]?
A: Its value is “rescued the defect”.

Q: And the “Increase of biofilm biomass compared to biofilms treated with conalbumin alone” value ([7]; PCA added to conalbumin-treated medium, day 6)?
A: Its value is 13 factor.

Q: And the “Wild type biofilm development with PCA added to the control medium” value ([7]; no conalbumin)?
A: The value was “developed similarly with respect to structure and biomass regardless of whether PCA was added”.

Q: And the “Effect on swarming motility” value [8]?
A: The value was “had no effect on the wild type”.

Q: And the “Effect on swarming motility” value [9]?
A: Its value is “significantly decreased the motility of the Δphz1/2 mutant”.

Q: What does the source list for Cn1c2cccc(=O)c-2nc2ccccc21 [PYO, Pyocyanin]?
A: Effect on NADH/NAD^+ ratio ([3]; 90 μM oxidized pyocyanin added to Δphz mutant cultures): reduced the NADH/NAD^+ ratio to the wild type level; Effect on intracellular NADH/NAD^+ ratios [3]: effected decreases in intracellular NADH/NAD^+ ratios; Effect on the structure of colonies [4]: did not noticeably affect the structure of wild-type colonies; Increased surface coverage compared to wild-type colonies ([6]; 0.1 M pyocyanin): 50%; Effect on rugosity and surface coverage of colonies [6]: significantly decreased rugosity and surface coverage of Δphz1/2 colonies; Agar surface covered more than wild-type colonies ([6]; pyocyanin 0.2M or higher): 35%; Rescue of the conalbumin-induced biofilm defect [7]: did not rescue the conalbumin-induced biofilm defect; Effect on swarming motility [8]: had no inhibitory effect on swarming of either the wild type or Δphz1/2; Effect on swarming motility [9]: had no inhibitory effect on swarming of either the wild type or Δphz1/2; Effect on Δphz1/2 flow cell biofilms ([10]; 25 μM pyocyanin): larger microcolonies and thicker biofilms resulted; % Coverage at substratum [10, 14]: 15.2 ± 2.46%; Average colony volume [10, 14]: 8170 μm^3; Average size of colonies at substratum [10, 14]: 102.6 ± 31 μm^2; Average thickness [10, 14]: 5.6 ± 1.6; Maximum thickness [10, 14]: 57.5 ± 1.9; Roughness coefficient [10, 14]: 1.3; Surface to volume ratio [10, 14]: 6.6 ± 0.6 μm^2/μm^3; Total biomass ([10]; 4 day-old biofilms, Δphz1/2, 25 μM pyocyanin in the medium from the beginning): 4.3 ± 1 μm^3/μm^2; Number of microcolonies ([10]; 4 day-old biofilms, Δphz1/2, 25 μM pyocyanin, minimum microcolony size at the substratum 10 μm^2): 8 ± 1.5; Rescue without Fe(OH)3(s) relative to rescue with Fe(OH)3(s) addition [11]: 2 times; Pyruvate excretion phenotype [12]: complemented the pyruvate excretion phenotype; Effect on gene expression [13]: elicits the upregulation of genes/operons that function in transport; also recorded: downregulates genes involved in ferric iron acquisition
